Reference: patent US6235493A, “Amino acid substituted-cresyl violet, synthetic fluorogenic substrates for the analysis of agents in individual in vivo cells or tissue” (priority 1998, dated 2001)

Key:
[1] = Fluorescence properties of cresyl violet (image analysis calibration); format: physicochemical
Description: Calibration was performed by measuring fluorescence of a series of solutions of 0-10 μM cresyl violet in Krebs-Henseleit medium. These solutions were also used to test the properties of cresyl violet for quantitative purposes. The depth of the incubation chamber was 24 μm and the size of the area measured 240×170 μm. The total volume that was measured was thus 0.001 μl. The amount of fluorescence captured by image analysis was linearly related with concentrations up to at least 10 μM when measured in a thin film of 24 μm which approximates the diameter of cells (FIG. 2A). Thus, cresyl violet has fluorescence properties that are necessary for quantitative fluorescence microscopy (36B). On the basis of FIG. 2A, it was calculated that 100 gray values corresponded with 6.7 fmoles cresyl violet. […] Flow cytometric analysis of production of cresyl violet in hepatorcytes was performed with a FAC-Star Plus (Becton and Dickinson, San Jose, Calif., USA) using the software program CellQuest (version 1.0; Becton and Dicksinson). Prior to analysis, cells were stained with the DNA dye Hoechst 3.3.3.4.2 (36 ,μg/ml; Hoechst Holland, Amsterdam, The Netherlands) for 30 min at 0° C. Analysis was started by established forward scatter and then substrate was added at t=0. Analysis was performed at a flow rate of 200 cells/sec. The parameters measured were time, forward scatter, fluorescence of Hoechst 3.3.3.4.2 dye (excitation at 350 nm, emission at 485 nm with a band width of 20 nm), and fluorescence of cresyl violet (excitation at 514 nm, emission at 630 nm with a band width of 22 nm). Filters were obtained from Becton and Dickenson. The power of the lasers was set at […]. Fluorometric analysis with time was carried out with a Perkin-Elmer LS 50 fluorescence spectrometer (Perkin-Elmer, Gouda, The Netherlands) under continuous magnetic stirring. Cuvettes with a light path of 1 cm were used. Excitation was performed at 591 nm with a slid width of 10 nm and emission was measured at 628 nm (slid width 10 nm). The first measurement was made at 5 sec after mixing cells and incubation medium.

[2] = Water solubility (stated); format: physicochemical; conditions: free cresyl violet; avoids accumulation around mitochondria
[3] = molecular target: T1, dipeptidyl peptidase IV (DPPIV) (CD26) (Rattus norvegicus, UniProt P14740); test: cell-based; format: cell-based; conditions: for mode of inhibition of DPPIV: individual living rat hepatocytes, image analysis
T1 construct: individual freshly isolated living rat hepatocytes; endogenous in cells; host or cells: hepatocytes freshly isolated from livers of male Wistar rats
T1 sequence (P14740 whole entry): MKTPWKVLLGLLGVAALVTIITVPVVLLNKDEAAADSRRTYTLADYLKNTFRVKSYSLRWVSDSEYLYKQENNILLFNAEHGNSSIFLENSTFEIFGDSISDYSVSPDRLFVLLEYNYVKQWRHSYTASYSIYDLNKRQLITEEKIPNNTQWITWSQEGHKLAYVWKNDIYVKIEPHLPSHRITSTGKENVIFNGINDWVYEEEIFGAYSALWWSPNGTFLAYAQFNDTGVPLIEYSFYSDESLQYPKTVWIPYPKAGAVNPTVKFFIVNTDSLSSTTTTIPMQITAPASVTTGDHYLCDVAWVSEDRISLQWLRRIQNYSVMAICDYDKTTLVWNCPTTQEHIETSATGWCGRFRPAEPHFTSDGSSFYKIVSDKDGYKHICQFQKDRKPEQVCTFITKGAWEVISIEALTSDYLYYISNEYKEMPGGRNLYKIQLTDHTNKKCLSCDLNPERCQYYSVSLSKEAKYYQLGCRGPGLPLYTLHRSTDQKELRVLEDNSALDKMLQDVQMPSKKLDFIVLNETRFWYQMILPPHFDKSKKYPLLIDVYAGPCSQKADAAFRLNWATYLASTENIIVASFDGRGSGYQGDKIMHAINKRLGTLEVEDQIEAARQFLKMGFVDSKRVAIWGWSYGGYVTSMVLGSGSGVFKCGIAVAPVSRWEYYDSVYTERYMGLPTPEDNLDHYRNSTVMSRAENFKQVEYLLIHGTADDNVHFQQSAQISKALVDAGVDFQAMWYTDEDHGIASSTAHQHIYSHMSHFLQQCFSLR
Description: Hepatocytes were isolated by collagenase perfusion of livers of male Wistar rats (200-250 g; HSD Animal Farm, Zeist, The Netherlands) after 24 h of starvation as described previously (30). The animals were exposed to a controlled dark-light cycle (light: 7:00 a.m.-7:00 p.m.) throughout the acclimatization period of at least 1 week. Before starvation, animals had free access to food (standard chow diet; Hope Farms, Woerden, The Netherlands) and water. The animals had always free access to water. During operation, the animals were under Nembutal anaesthesia. Animal care was performed according to the guidelines of the University of Amsterdam. Hepatocytes (5-10 mg dry mass/ml) were kept in Krebs-Henseleit bicarbonate medium containing 1.3 mM Ca^2+, 10 mM sodium Hepes (pH 7.4), 20 mM glucose and 1 mM octanoate on ice until enzyme assays. Homogenates were prepared by freezing cell suspensions in liquid nitrogen and subsequent thawing. One volume of homogenates and 10 volumes of 20 mM Tris-HCI buffer (pH 7.4) containing 1% (v/v) Triton X-100 were mixed and incubated at 4° C. under constant stirring for 60 min. One part of these homogenates was used for the determination of DPPIV activity. Another part was centrifuged (40,000 x g, 4° C., 20 min) and the supernatants were used as membrane fractions for the determination of DPPIV activity.
Analysis of DPPIV Activity
DPPIV activity was determined in hepatocytes using 6 approaches. Activity was determined in living hepatocytes with confocal scanning laser microscopy, image processing and analysis, flow cytometry, and fluorometry. Fluorometry was also used for the determination of activity in homogenates of hepatocytes and in membrane fractions of hepatocytes. Incubations were started at t=0 by adding an aliquot of 60 μl hepatocytes to 3 ml Krebs-Henseleit medium containing 0-50 μM (Ala-Pro)^2 -cresyl violet in the presence or absence of 0-50 μM Ala-Pip^p (OPh-4-Cl)2 (Enzyme Systems Products), which is a selective DPPIV inhibitor (31A,32A). Substrate and inhibitor were dissolved first in dimethylsulfoxide. The final concentration of dimethylsulfoxide in the incubation medium was 0.5% (v/v). Incubations were carried out at 20° C. Confocal scanning laser microscopy was performed after 100 μl of an assay medium containing hepatocytes was brought into a well formed by a stainless steel ring attached to a glass slide (33A). Images of cells were captured in time with a Leica confocal scanning laser microscope fitted to a Leica Fluovert inverted microscope equipped with a PL APO oil-immersion objective (63×, NA 1.40). Excitation was performed at 568 nm and fluorescence was captured at >595 nm. The pinhole aperture was set to provide an optimized image (34A). Cells were subjected to optical serial sectioning after each 60 sec of incubation up to 300 sec. Images in the X-Y plane were recorded with intervals of 0.5 μm in the Z direction. Each optical section was averaged 8 times. Images were recorded din a 512×512 pixel format. The size of each pixel represented 0.015 μm^2 in the object. Confocal data stacks of 20-30 optical sections were processed with standard Leica software package.
Image analysis was performed by transferring an aliquot of 100, μl of an incubation medium containing hepatocytes into an incubation chamber that consisted of an object glass and a cover glass separated by a spacer made of adhesion tape with a thickness of […]. The object glass was set on the stage of a fluorescencee microscope (Leitz Dialux 20, Wetzlar, Germany) with a ×25 objective (NA 0.75). A drop of medium was placed beside the cover glass and the chamber became filled by capillary forces in a few seconds. […]

[4] = tested on: dipeptidyl peptidase IV (DPPIV); test: DPPIV activity in membrane fractions of hepatocytes (fluorometry); format: biochemical, rat; conditions: membrane fractions of the same hepatocyte suspensions
Description: Hepatocytes were isolated by collagenase perfusion of livers of male Wistar rats (200-250 g; HSD Animal Farm, Zeist, The Netherlands) after 24 h of starvation as described previously (30). The animals were exposed to a controlled dark-light cycle (light: 7:00 a.m.-7:00 p.m.) throughout the acclimatization period of at least 1 week. Before starvation, animals had free access to food (standard chow diet; Hope Farms, Woerden, The Netherlands) and water. The animals had always free access to water. During operation, the animals were under Nembutal anaesthesia. Animal care was performed according to the guidelines of the University of Amsterdam. […]
DPPIV activity was determined in hepatocytes using 6 approaches. Activity was determined in living hepatocytes with confocal scanning laser microscopy, image processing and analysis, flow cytometry, and fluorometry. […] Excitation was performed at 568 nm and fluorescence was captured at >595 nm. […] Images in the X-Y plane were recorded with intervals of 0.5 μm in the Z direction. […] Images were recorded din a 512×512 pixel format. […]
Calibration was performed by measuring fluorescence of a series of solutions of 0-10 μM cresyl violet in Krebs-Henseleit medium. These solutions were also used to test the properties of cresyl violet for quantitative purposes. The depth of the incubation chamber was 24 μm and the size of the area measured 240×170 μm. […]

In the case of `N=c1cc2oc3cc(N)ccc3nc-2c2ccccc12` [cresyl violet], the “fading of fluorescence during measurements in time” value ([1]; FIG. 2B) is reported as “Fading did not occur to any significant extent”, the “amount corresponding with 100 gray values” ([1]; image analysis calibration, FIG. 2A) is reported as 6.7 fmol and the “linearity of fluorescence with concentration (up to)” value ([1]; thin film of 24 μm, Krebs-Henseleit medium) is reported as “at least 10 μM”. The water solubility [2] was “sufficiently water soluble”.

With `C[C@H](N)C(=O)N1CCCCC1P(=O)(Oc1ccc(Cl)cc1)Oc1ccc(Cl)cc1` (some centres unmarked) [Ala-Pip^p (OPh-4Cl)2, Ala-Pip^p (OPh-4-Cl)2] the Ki [3] was 7 µM, the “mode of inhibition of DPPIV” value [3] was “selective competitive inhibitor” and the “mode of inhibition of DPPIV” value ([3]; listed as dipeptide phosphonate inhibitor) was “competitively”.

In the case of `C[C@H](N)C(=O)N1CCC[C@H]1C(=O)NC1=CC2Oc3cc(NC(=O)[C@@H]4CCCN4C(=O)[C@H](C)N)ccc3N=C2c2ccccc21` (stereo partly drawn) [Ala-Pro-cresyl violet, [Ala-Pro]^2-cresyl violet], the “Vmax in individual hepatocytes” value [3] is reported as 4-16 nU, the Km ([3]; hepatocytes) is reported as 6 to 22 µM and the “conversion rate in the rat with the highest Vmax and lowest Km vs rat with the lowest Vmax and highest Km” value ([3]; physiological substrate concentrations) is reported as 10- to 20 fold. The “inverse relationship between Km and Vmax in membrane fractions” value [4] was “lost”.
